Reference: the CheMixHub viscosity set
Where “and” joins values, the source holds several entries; their conditions need not be identical. Identical values can stand only once. ± gives the uncertainty stated by the source.

Tests used:
[1] = xn = mol fraction of the nth substance listed

CC12CCC(CC1)C(C)(C)O2
101 kPa
Settings | viscosity [mPa·s]
298.15 K | 2.6 ± 0.05
303.15 K | 2.066 ± 0.062
308.15 K | 1.856 ± 0.056
313.15 K | 1.676 ± 0.051
318.15 K | 1.73 ± 0.04

CCCCN(CCO)CCO
101 kPa
Settings | viscosity [mPa·s]
303.15 K | 41.29 ± 0.6
308.15 K | 31.59 ± 0.49
313.15 K | 24.47 ± 0.37
318.15 K | 19.39 ± 0.29
323.15 K | 15.47 ± 0.25

CNN
Settings | viscosity [mPa·s]
293.15 K, 101.3 kPa | 0.96 ± 0.03

CCC(=O)O
viscosity
Settings | 293.15 K | 298.15 K | 303.15 K | 313.15 K | 318.15 K | 323.15 K
101 kPa | 1.1 ± 0.01 mPa·s and 1.07 ± 0.023 mPa·s and 1.102 ± 0.028 mPa·s | – | – | – | – | 0.75 ± 0.01 mPa·s
101.33 kPa | 1.103 ± 0.054 mPa·s and 1.156 ± 0.012 mPa·s and 1.101 ± 0.03 mPa·s | 1.03 ± 0.05 mPa·s | 0.96 ± 0.05 mPa·s and 0.944 ± 0.026 mPa·s | 0.8453 ± 0.043 mPa·s and 0.901 ± 0.009 mPa·s and 0.84 ± 0.04 mPa·s | 0.783 ± 0.021 mPa·s | 0.8102 ± 0.041 mPa·s

Nc1cccc(Cl)c1
101 kPa
Settings | viscosity [mPa·s]
298.15 K | 3.495 ± 0.093
303.15 K | 3.256 ± 0.83

CCC(C)c1ccccc1 (stereo unspecified)
102 kPa
Settings | viscosity [mPa·s]
293.15 K | 0.932 ± 0.021
303.15 K | 0.812 ± 0.021
313.15 K | 0.712 ± 0.021
323.15 K | 0.632 ± 0.021

CC(=O)C=C(C)C
Settings | viscosity [mPa·s]
298.15 K, 101 kPa | 0.876 ± 0.011

CCCC[n+]1ccc(C)cc1.F[B-](F)(F)F
101 kPa
Settings | viscosity [mPa·s]
298.15 K | 196.2 ± 73
313.15 K | 80.85 ± 11
323.15 K | 50.22 ± 1.4

ClCCCCCl
101 kPa
Settings | viscosity [mPa·s]
298.15 K | 1.319 ± 0.012
303.15 K | 1.218 ± 0.011
308.15 K | 1.128 ± 0.011
313.15 K | 1.043 ± 0.0099

ClCCCCCl + CC(C)CO
viscosity [mPa·s], [1], 101 kPa
Settings | x1 = 0.0994 | x1 = 0.1958 | x1 = 0.2938 | x1 = 0.4026 | x1 = 0.5 | x1 = 0.6041 | x1 = 0.7031 | x1 = 0.801 | x1 = 0.8984
298.15 K | 2.524 ± 0.023 | 2.027 ± 0.019 | 1.715 ± 0.016 | 1.501 ± 0.014 | 1.371 ± 0.013 | 1.285 ± 0.012 | 1.236 ± 0.012 | 1.208 ± 0.011 | 1.215 ± 0.012
313.15 K | 1.648 ± 0.018 | 1.381 ± 0.014 | 1.207 ± 0.012 | 1.097 ± 0.011 | 1.02 ± 0.01 | 0.977 ± 0.01 | 0.9567 ± 0.0094 | 0.9491 ± 0.0093 | 0.9661 ± 0.0096

Nc1cccc(Cl)c1 + COCCO
[1], 303.15 K, 101 kPa
Settings | viscosity [mPa·s]
x1 = 0.0687 | 2.116 ± 0.54
x1 = 0.1403 | 2.27 ± 0.58
x1 = 0.238 | 2.434 ± 0.62
x1 = 0.3592 | 2.586 ± 0.66
x1 = 0.4287 | 2.72 ± 0.69
x1 = 0.5233 | 2.844 ± 0.72
x1 = 0.6416 | 2.949 ± 0.75
x1 = 0.7401 | 3.05 ± 0.78
x1 = 0.8794 | 3.143 ± 0.8

OC[C@@H](O)[C@@H](O[C@H]1O[C@H](CO)[C@@H](O)[C@H](O)[C@H]1O)[C@H](O)[C@@H](O)CO + O
[1]
Settings | viscosity
293.15 K, 100 kPa, x1 = 0.06986 | 60.3 ± 3.2 mPa·s
293.15 K, 101.3 kPa, x1 = 0.004 | 1.19 ± 0.05 mPa·s
293.15 K, 101.3 kPa, x1 = 0.007 | 1.45 ± 0.06 mPa·s
293.15 K, 101.3 kPa, x1 = 0.01 | 1.77 ± 0.07 mPa·s
293.15 K, 101.3 kPa, x1 = 0.018 | 2.6 ± 0.11 mPa·s
298.15 K, 100 kPa, x1 = 0.07553 | 62 ± 3 mPa·s
303.15 K, 100 kPa, x1 = 0.08206 | 64 ± 3.2 mPa·s
303.15 K, 101 kPa, x1 = 0.003592 | 0.9493 ± 0.016 mPa·s
303.15 K, 101.3 kPa, x1 = 0.004 | 0.92 ± 0.04 mPa·s
303.15 K, 101.3 kPa, x1 = 0.007 | 1.11 ± 0.05 mPa·s
303.15 K, 101.3 kPa, x1 = 0.01 | 1.34 ± 0.05 mPa·s
303.15 K, 101.3 kPa, x1 = 0.018 | 1.93 ± 0.08 mPa·s
308.15 K, 100 kPa, x1 = 0.08946 | 67 ± 3 mPa·s
313.15 K, 100 kPa, x1 = 0.09729 | 68 ± 6 mPa·s
313.15 K, 101.3 kPa, x1 = 0.004 | 0.75 ± 0.03 mPa·s
313.15 K, 101.3 kPa, x1 = 0.007 | 0.89 ± 0.04 mPa·s
313.15 K, 101.3 kPa, x1 = 0.01 | 1.05 ± 0.04 mPa·s and 1.27 ± 0.05 mPa·s
313.15 K, 101.3 kPa, x1 = 0.018 | 1.49 ± 0.06 mPa·s
318.15 K, 100 kPa, x1 = 0.1055 | 76 ± 4 mPa·s
323.15 K, 100 kPa, x1 = 0.1147 | 79 ± 5 mPa·s
323.15 K, 101 kPa, x1 = 0.003592 | 0.6401 ± 0.011 mPa·s
323.15 K, 101 kPa, x1 = 0.007153 | 0.7457 ± 0.013 mPa·s
323.15 K, 101.3 kPa, x1 = 0.004 | 0.62 ± 0.03 mPa·s
323.15 K, 101.3 kPa, x1 = 0.007 | 0.73 ± 0.03 mPa·s
323.15 K, 101.3 kPa, x1 = 0.01 | 0.86 ± 0.04 mPa·s and 1.05 ± 0.04 mPa·s
323.15 K, 101.3 kPa, x1 = 0.018 | 1.19 ± 0.05 mPa·s

OC(O)C(Cl)(Cl)Cl + O
[1], 293.15 K, 101 kPa
Settings | viscosity [mPa·s]
x1 = 0.026 | 1.276 ± 0.22
x1 = 0.0441 | 1.631 ± 0.32
x1 = 0.06 | 1.841 ± 0.38

CNN + O
[1], 293.15 K, 101.3 kPa
Settings | viscosity [mPa·s]
x1 = 0.0514 | 1.53 ± 0.05
x1 = 0.1003 | 2.35 ± 0.07
x1 = 0.1615 | 3.54 ± 0.11
x1 = 0.2017 | 4.51 ± 0.14
x1 = 0.2563 | 5.58 ± 0.18
x1 = 0.303 | 6 ± 0.19
x1 = 0.3482 | 5.9 ± 0.19
x1 = 0.4048 | 5.5 ± 0.18
x1 = 0.4408 | 4.91 ± 0.16
x1 = 0.5008 | 4.07 ± 0.13
x1 = 0.6034 | 2.98 ± 0.09
x1 = 0.6873 | 2.16 ± 0.07
x1 = 0.8036 | 1.56 ± 0.05
x1 = 0.8917 | 1.22 ± 0.04

[F-].[Na+] + [2H]O[2H]
viscosity [mPa·s], [1], 101 kPa
Settings | 298.15 K | 308.15 K | 318.15 K
x1 = 0.0054 | 1.159 ± 0.013 | 0.913 ± 0.01 | 0.747 ± 0.008
x1 = 0.0122 | 1.246 ± 0.014 | 0.98 ± 0.011 | 0.8 ± 0.009
x1 = 0.0163 | 1.326 ± 0.015 | 1.043 ± 0.012 | 0.857 ± 0.01

CCCOC(=O)CC + CCCCCCCCCC
[1], 298.15 K, 101.33 kPa
Settings | viscosity [mPa·s]
x2 = 0.0964 | 0.647 ± 0.007
x2 = 0.1323 | 0.65 ± 0.007
x2 = 0.1683 | 0.653 ± 0.007
x2 = 0.2534 | 0.661 ± 0.007
x2 = 0.3486 | 0.672 ± 0.007
x2 = 0.3989 | 0.68 ± 0.008
x2 = 0.5459 | 0.706 ± 0.008
x2 = 0.6381 | 0.728 ± 0.009
x2 = 0.7337 | 0.756 ± 0.009
x2 = 0.8679 | 0.802 ± 0.01
x2 = 0.9275 | 0.827 ± 0.011

CC(=O)CCC(=O)O + O=C(O)[C@@H]1CCCN1
[1], 100 kPa, x1 = 0.667
Settings | viscosity [mPa·s]
303.15 K | 955 ± 130
308.15 K | 636.1 ± 81
313.15 K | 432.5 ± 52
318.15 K | 301 ± 34
323.15 K | 219.6 ± 24

[K+].[O]=[Mn](=[O])(=[O])[O-] + [2H]O[2H]
viscosity [mPa·s], [1], 101 kPa
Settings | x1 = 0.0021 | x1 = 0.0034 | x1 = 0.0052 | x1 = 0.0062
298.15 K | 1.101 ± 0.009 | 1.092 ± 0.009 | 1.079 ± 0.009 | 1.082 ± 0.009
308.15 K | 0.873 ± 0.007 | 0.861 ± 0.007 | 0.853 ± 0.007 | 0.85 ± 0.007
318.15 K | 0.717 ± 0.006 | 0.709 ± 0.006 | 0.703 ± 0.006 | 0.704 ± 0.006

Nc1cccc(Cl)c1 + NCCO
Settings | viscosity [mPa·s]
[1], 308.15 K, 100 kPa, x1 = 0.3619 | 8.885 ± 1
